In the supplement of paper PMC10307832:

Experiments:
Experiment in all cases: relative viability (nuclei count vs DMSO), 5 days (fraction); higher = more cells survive
[1] = compound: CCC1=CN=CN=C1N2CCN(CC2)CC3=NC4=C(N3)C=C(C=C4)C(F)(F)F + Cc1nc(NC(=O)N2CCC[C@H]2C(N)=O)sc1-c1ccnc(C(C)(C)C(F)(F)F)c1 [Alpelisib] (partner 2 µM)
Summary of the method: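 Five library-drug doses in √10 steps were combined with a fixed anchor-drug dose, or a single drug was given alone, by pin tool to lung cancer cell lines in 1536-well plates the day after seeding. Nuclei were stained and counted after 5 days. Relative viability is the nuclei count in treated wells over that in vehicle wells, taken as the median of duplicate plates.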

Mirin = compound: N=C1NC(=O)/C(=C/c2ccc(O)cc2)S1 [Mirin]
Summary of the method: (§1)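 A plate was accepted only when its control CV was below 25% and the cells had doubled at least once. Viability is defined from nuclear counts as treated wells divided by vehicle wells, with the median taken across plates. That median covers lung cancer cell lines grown in 1536-well plates, dosed by pinning at five √10-spaced library-drug concentrations, and counted in MetaXpress from 4× Hoechst images after 5 days.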

[2] = compound: CCC1=CN=CN=C1N2CCN(CC2)CC3=NC4=C(N3)C=C(C=C4)C(F)(F)F
Summary of the method: as §1

[3] = compound: CCn1c(-c2nonc2N)nc2cnc(Oc3cccc(NC(=O)c4ccc(OCCN5CCOCC5)cc4)c3)cc21
Summary of the method: as §1

NCI-H2085
relative viability ([1]; first compound 0.04 µM): 1.05 | relative viability ([1]; first compound 0.1265 µM): 0.915 | relative viability ([1]; first compound 0.4 µM): 0.991 | relative viability ([1]; first compound 1.265 µM): 0.879 | relative viability ([1]; first compound 4 µM): 0.832 | relative viability (Mirin; 0.25 µM): 0.981 | relative viability (Mirin; 0.7906 µM): 0.979 | relative viability (Mirin; 2.5 µM): 1.01 | relative viability (Mirin; 7.906 µM): 0.957 | relative viability (Mirin; 25 µM): 0.99 | relative viability ([2]; 0.04 µM): 0.896 | relative viability ([2]; 0.1265 µM): 0.912 | relative viability ([2]; 0.4 µM): 0.949 | relative viability ([2]; 1.265 µM): 0.918 | relative viability ([2]; 4 µM): 0.972 | relative viability ([3]; 0.04 µM): 1.09 | relative viability ([3]; 0.1265 µM): 0.919 | relative viability ([3]; 0.4 µM): 0.826 | relative viability ([3]; 1.265 µM): 0.778 | relative viability ([3]; 4 µM): 0.765

NCI-H358
relative viability ([1]; first compound 0.04 µM): 0.892 | relative viability ([1]; first compound 0.1265 µM): 0.836 | relative viability ([1]; first compound 0.4 µM): 0.833 | relative viability ([1]; first compound 1.265 µM): 0.853 | relative viability ([1]; first compound 4 µM): 0.747 | relative viability (Mirin; 0.25 µM): 0.888 | relative viability (Mirin; 0.7906 µM): 0.901 | relative viability (Mirin; 2.5 µM): 0.998 | relative viability (Mirin; 7.906 µM): 0.9 | relative viability (Mirin; 25 µM): 0.714 | relative viability ([2]; 0.04 µM): 1.06 | relative viability ([2]; 0.1265 µM): 0.866 | relative viability ([2]; 0.4 µM): 0.858 | relative viability ([2]; 1.265 µM): 0.806 | relative viability ([2]; 4 µM): 0.915 | relative viability ([3]; 0.04 µM): 0.934 | relative viability ([3]; 0.1265 µM): 0.919 | relative viability ([3]; 0.4 µM): 0.577 | relative viability ([3]; 1.265 µM): 0.829 | relative viability ([3]; 4 µM): 0.619

NCI-H1623
relative viability (Mirin; 0.25 µM): 0.967 | relative viability (Mirin; 0.7906 µM): 1.08 | relative viability (Mirin; 2.5 µM): 1.04 | relative viability (Mirin; 7.906 µM): 0.823 | relative viability (Mirin; 25 µM): 0.738 | relative viability ([2]; 0.04 µM): 0.897 | relative viability ([2]; 0.1265 µM): 0.996 | relative viability ([2]; 0.4 µM): 0.873 | relative viability ([2]; 1.265 µM): 0.832 | relative viability ([2]; 4 µM): 1.17 | relative viability ([3]; 0.04 µM): 1.13 | relative viability ([3]; 0.1265 µM): 1.02 | relative viability ([3]; 0.4 µM): 0.974 | relative viability ([3]; 1.265 µM): 0.902 | relative viability ([3]; 4 µM): 1.08

SW 900
relative viability (Mirin; 0.25 µM): 1 | relative viability (Mirin; 0.7906 µM): 0.773 | relative viability (Mirin; 2.5 µM): 0.888 | relative viability (Mirin; 7.906 µM): 0.98 | relative viability (Mirin; 25 µM): 0.869 | relative viability ([2]; 0.04 µM): 0.842 | relative viability ([2]; 0.1265 µM): 0.928 | relative viability ([2]; 0.4 µM): 0.866 | relative viability ([2]; 1.265 µM): 0.626 | relative viability ([2]; 4 µM): 0.857 | relative viability ([3]; 0.04 µM): 0.892 | relative viability ([3]; 0.1265 µM): 0.946 | relative viability ([3]; 0.4 µM): 0.917 | relative viability ([3]; 1.265 µM): 0.716 | relative viability ([3]; 4 µM): 0.83

NCI-H1650
relative viability (Mirin; 0.25 µM): 0.963 | relative viability (Mirin; 0.7906 µM): 1.08 | relative viability (Mirin; 2.5 µM): 1 | relative viability (Mirin; 7.906 µM): 0.984 | relative viability (Mirin; 25 µM): 0.61 | relative viability ([2]; 0.04 µM): 0.82 | relative viability ([2]; 0.1265 µM): 0.824 | relative viability ([2]; 0.4 µM): 0.84 | relative viability ([2]; 1.265 µM): 0.703 | relative viability ([2]; 4 µM): 0.981 | relative viability ([3]; 0.04 µM): 1.21 | relative viability ([3]; 0.1265 µM): 0.894 | relative viability ([3]; 0.4 µM): 0.858 | relative viability ([3]; 1.265 µM): 0.746 | relative viability ([3]; 4 µM): 0.812

NCI-H2342
relative viability (Mirin; 0.25 µM): 0.998 | relative viability (Mirin; 0.7906 µM): 1.02 | relative viability (Mirin; 2.5 µM): 1.03 | relative viability (Mirin; 7.906 µM): 0.668 | relative viability (Mirin; 25 µM): 0.888 | relative viability ([2]; 0.04 µM): 0.936 | relative viability ([2]; 0.1265 µM): 0.888 | relative viability ([2]; 0.4 µM): 0.864 | relative viability ([2]; 1.265 µM): 0.543 | relative viability ([2]; 4 µM): 0.72 | relative viability ([3]; 0.04 µM): 1.04 | relative viability ([3]; 0.1265 µM): 1.05 | relative viability ([3]; 0.4 µM): 0.874 | relative viability ([3]; 1.265 µM): 0.748 | relative viability ([3]; 4 µM): 0.804

ChaGo-K-1
relative viability (Mirin; 0.25 µM): 0.986 | relative viability (Mirin; 0.7906 µM): 0.916 | relative viability (Mirin; 2.5 µM): 0.93 | relative viability (Mirin; 7.906 µM): 0.887 | relative viability (Mirin; 25 µM): 0.833 | relative viability ([2]; 0.04 µM): 1.01 | relative viability ([2]; 0.1265 µM): 0.961 | relative viability ([2]; 0.4 µM): 0.932 | relative viability ([2]; 1.265 µM): 0.961 | relative viability ([2]; 4 µM): 0.97 | relative viability ([3]; 0.04 µM): 1.14 | relative viability ([3]; 0.1265 µM): 1.02 | relative viability ([3]; 0.4 µM): 0.801 | relative viability ([3]; 1.265 µM): 0.833 | relative viability ([3]; 4 µM): 0.879

NCI-H1648
relative viability (Mirin; 0.25 µM): 1.04 | relative viability (Mirin; 0.7906 µM): 0.726 | relative viability (Mirin; 2.5 µM): 1.09 | relative viability (Mirin; 7.906 µM): 0.552 | relative viability (Mirin; 25 µM): 0.709 | relative viability ([2]; 0.04 µM): 0.916 | relative viability ([2]; 0.1265 µM): 0.664 | relative viability ([2]; 1.265 µM): 1.1 | relative viability ([2]; 4 µM): 0.611 | relative viability ([3]; 0.04 µM): 1.27 | relative viability ([3]; 0.1265 µM): 1.34 | relative viability ([3]; 0.4 µM): 0.982 | relative viability ([3]; 1.265 µM): 1.35 | relative viability ([3]; 4 µM): 0.875

NCI-H522
relative viability (Mirin; 0.25 µM): 0.979 | relative viability (Mirin; 0.7906 µM): 0.9 | relative viability (Mirin; 2.5 µM): 1.06 | relative viability (Mirin; 7.906 µM): 0.753 | relative viability (Mirin; 25 µM): 0.655 | relative viability ([2]; 0.04 µM): 0.833 | relative viability ([2]; 0.1265 µM): 1.03 | relative viability ([2]; 0.4 µM): 0.931 | relative viability ([2]; 1.265 µM): 0.799 | relative viability ([2]; 4 µM): 0.919 | relative viability ([3]; 0.04 µM): 1.13 | relative viability ([3]; 0.1265 µM): 0.815 | relative viability ([3]; 0.4 µM): 0.74 | relative viability ([3]; 1.265 µM): 0.576 | relative viability ([3]; 4 µM): 0.698
